Source: ChEMBL document CHEMBL2401684, “Synthesis and evaluation of a conditionally-silent agonist for the α7 nicotinic acetylcholine receptor” (Bioorg Med Chem Lett, 2013)
Activity calls are given as the source filed them. The rule behind the calls is not given here.

Legend:
[1] = target: T1, Neuronal acetylcholine receptor subunit alpha-7 (Homo sapiens, UniProt P36544); test: Silent agonist activity at human alpha7 nAChR expressed in Xenopus laevis oocytes assessed as induction of TQS-stimulated peak current; format: cell-based; details: Oocyte
[2] = target: T1, Neuronal acetylcholine receptor subunit alpha-7; test: Agonist activity at human alpha7 nAChR expressed in Xenopus laevis oocytes assessed as induction of peak current at 100 uM; format: cell-based; details: Oocyte
[3] = target: T1, Neuronal acetylcholine receptor subunit alpha-7; test: Antagonist activity at human alpha7 nAChR expressed in Xenopus laevis oocytes assessed as reduction of acetylcholine-induced peak current at 100 uM; format: cell-based; details: Oocyte
[4] = target: T1, Neuronal acetylcholine receptor subunit alpha-7; test: Silent agonist activity at human alpha7 nAChR expressed in Xenopus laevis oocytes assessed as induction of PNU-120596-stimulated peak current in presence of methyllycaconitine; format: cell-based; details: Oocyte
[5] = target: T1, Neuronal acetylcholine receptor subunit alpha-7; test: Silent agonist activity at human alpha7 nAChR expressed in Xenopus laevis oocytes assessed as induction of PNU-120596-stimulated peak current at 100 uM; format: cell-based; details: Oocyte
[6] = target: T1, Neuronal acetylcholine receptor subunit alpha-7; test: Silent agonist activity at human alpha7 nAChR expressed in Xenopus laevis oocytes assessed as induction of PNU-120596-stimulated peak current; format: cell-based, Oocyte
[7] = target: Neuronal acetylcholine receptor subunit alpha-7 (Rattus norvegicus) (UniProt Q05941); test: Agonist activity at rat alpha7 nAChR expressed in Xenopus laevis oocytes assessed as induction of acetylcholine-stimulated peak inward current by two-electrode voltage clamp assay; format: cell-based; details: Oocyte
[8] = target: T1, Neuronal acetylcholine receptor subunit alpha-7; test: Agonist activity at human alpha7 nAChR expressed in Xenopus laevis oocytes assessed as induction of acetylcholine-stimulated peak inward current by two-electrode voltage clamp assay; format: cell-based; details: Oocyte

T1 sequence (P36544 whole entry): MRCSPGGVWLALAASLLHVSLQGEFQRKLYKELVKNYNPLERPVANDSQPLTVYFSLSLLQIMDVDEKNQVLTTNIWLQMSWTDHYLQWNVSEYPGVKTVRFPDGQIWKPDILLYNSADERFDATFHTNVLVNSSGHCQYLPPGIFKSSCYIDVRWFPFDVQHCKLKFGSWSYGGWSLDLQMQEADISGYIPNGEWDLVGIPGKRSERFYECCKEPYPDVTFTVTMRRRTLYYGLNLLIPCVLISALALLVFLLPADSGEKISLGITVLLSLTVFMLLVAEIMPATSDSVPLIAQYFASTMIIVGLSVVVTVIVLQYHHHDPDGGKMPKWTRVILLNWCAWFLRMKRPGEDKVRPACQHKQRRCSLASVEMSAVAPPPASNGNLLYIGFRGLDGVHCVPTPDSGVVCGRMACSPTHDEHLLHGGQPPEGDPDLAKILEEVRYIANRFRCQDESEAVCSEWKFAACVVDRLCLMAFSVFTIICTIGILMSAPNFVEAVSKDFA
Sequence of Neuronal acetylcholine receptor subunit alpha-7 (Rattus norvegicus) (Q05941 whole entry): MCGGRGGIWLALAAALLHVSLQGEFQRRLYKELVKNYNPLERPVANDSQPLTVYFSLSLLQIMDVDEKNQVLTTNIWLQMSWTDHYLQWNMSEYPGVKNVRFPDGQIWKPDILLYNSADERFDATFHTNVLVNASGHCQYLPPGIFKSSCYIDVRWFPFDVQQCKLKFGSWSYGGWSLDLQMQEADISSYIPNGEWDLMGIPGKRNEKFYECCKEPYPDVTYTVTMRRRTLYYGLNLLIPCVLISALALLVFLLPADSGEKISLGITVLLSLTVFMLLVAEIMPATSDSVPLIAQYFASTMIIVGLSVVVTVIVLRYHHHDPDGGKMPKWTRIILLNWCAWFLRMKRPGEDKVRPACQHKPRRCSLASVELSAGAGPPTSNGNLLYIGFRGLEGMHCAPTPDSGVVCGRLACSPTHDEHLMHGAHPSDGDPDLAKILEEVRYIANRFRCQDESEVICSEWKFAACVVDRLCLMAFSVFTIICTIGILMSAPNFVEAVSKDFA

Structure (SMILES) | Activity [1] | Activity [2] | Activity [3] | Activity [4] | Activity [5] | IC50 [6] [µM] | Activity [7] [%] | Activity [8] [%]
c1ccc(-c2cncc(C3=NCCCC3)c2)cc1 | Active | inactive | Active | inactive | Active | 41 | – | –
O=C(c1ccc(-c2cccc(C(F)(F)F)c2)o1)N1CCN2CCC1CC2 | – | – | – | – | – | – | < 2 | < 2
